Reference: patent publication US9801960B2, “Probe for a biological specimen and labelling method and screening method using the probe” (CANON KABUSHIKI KAISHA, priority 2008, dated 2017)

What was measured:
Zebrafish juveniles = assay: In vivo labelling of Zebrafish juveniles with probe for biological specimen; parameters: key to Staining property: +++: stained; −: no stained; key to Fluorescence sensitivity: +++: strongly observed; ++: moderately observed; +: weakly observed; −: no stained; conditions: 1 hour; for Fluorescence sensitivity / Staining property: 10 ng/mL; for Fluorescence sensitivity: fluorescence intensity visually evaluated; for Staining property: visually evaluated; for Site(s) to be labelled: 10 ng/mL in water, stereoscopic microscope
In short: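 Five zebrafish juveniles were immersed in distilled water containing staining compound at 10 ng/mL (DMSO solution) for 1 hour. They were then washed three times with Egg Water, immobilised in 3% methylcellulose and imaged by stereomicroscope. Staining and fluorescence intensity were scored visually on a +++ to − scale.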

[1] = Storage stability of staining compound solution in DMSO; format: physicochemical; conditions: 10 ng/mL in DMSO, closed glass container, normal temperature, 1 month; rate of change of absorbance and fluorescence intensity
In short: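 Compounds held as 10 ng/mL DMSO solutions in closed glass containers at normal temperature for 1 month. Rates of change in absorbance and fluorescence intensity at a given wavelength versus start were scored: +++ <5%, ++ 5–15%, − >15%.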

[2] = Excitation and fluorescence emission wavelength measurement; format: physicochemical; parameters: Stokes shift (λem − λex): unit not given here; conditions: aqueous solution: 10 mg/mL solution in DMSO diluted 500-fold with purified water
Protocol: It should be noted that the excitation wavelength and the fluorescence emission wavelength of the staining compound were determined by measuring an aqueous solution, which had been obtained by diluting 500-fold a 10 mg/mL solution of the staining compound in DMSO with purified water, with a fluorescence spectrophotometer FL 4500 manufactured by Hitachi High-Technologies Corporation.

Zebrafish liver section = assay: Ex vivo labelling: tissue section of stained Zebrafish; parameters: key to Staining property: +++: stained; −: no stained; key to Fluorescence sensitivity: +++: strongly observed; ++: moderately observed; +: weakly observed; −: no stained; conditions: 50 μm, fish stained as in Example 5, PFA fixed
Protocol: Zebrafish which had been stained by the operation in Example 5 was taken out and fixed with a 4% solution of paraformaldehyde (PFA) in PBS. After that, a tissue section having a thickness of 50 μm was prepared with a linear slicer PRO7 (manufactured by Dosaka EM Co., Ltd.) (Table 3). The section was collected on an MAS-coated slide glass (manufactured by Matsunami Glass Ind., Ltd.), mounted with Fluoromount G (manufactured by Southern Biotechnology), and then covered with a cover glass.

[3] = tested on: human small intestine section; assay: In vitro labelling of human frozen tissue section slide; format: cell-based; parameters: key to Staining property: +++: stained; −: no stained; key to Fluorescence sensitivity: +++: strongly observed; ++: moderately observed; +: weakly observed; −: no stained; conditions: 10 ng/mL aqueous solution, 1 hour
Protocol: (§1) A human frozen tissue section slide (manufactured by BioChain Institute, Inc.) shown in Table 3 was immersed in a 10 ng/mL aqueous solution of each of the staining compounds shown in Table 3 for 1 hour. Next, the slide was washed three times with PBS for 10 minutes, mounted with Fluoromount G (manufactured by Southern Biotechnology), and then covered with a cover glass.

[4] = tested on: human liver tumor section; assay: as above; format: cell-based; parameters: key to Staining property: +++: stained; −: no stained; key to Fluorescence sensitivity: +++: strongly observed; ++: moderately observed; +: weakly observed; −: no stained; conditions: 10 ng/mL aqueous solution, 1 hour
Protocol: as §1

Compound	Excitation wavelength λex [2] [nm]	Fluorescence emission wavelength λem [2] [nm]	Stokes shift (λem − λex) [2]	Fluorescence sensitivity (Zebrafish juveniles)	Staining property (Zebrafish juveniles)	Storage stability [1]	Fluorescence sensitivity (Zebrafish liver section)	Staining property (Zebrafish liver section)	Site(s) to be labelled (Zebrafish juveniles)	Fluorescence sensitivity [3]	Staining property [3]	Fluorescence sensitivity [4]	Staining property [4]
COc1ccc2cc(N3c4ccc(/C=C(\C#N)C(=O)O)cc4C4CCCC43)ccc2c1 (stereo not shown) [Dye 6]	474	610	136	+++	+++	+++ (rates of change of the absorbance and the fluorescence intensity are less than 5%, and thus, the storage stability is highly excellent)	+++	+++	–	–	–	–	–
O=C(O)C[n+]1c(/C=C/c2cc(Br)c3c(c2)C2CCCC2N3c2ccccc2)sc2ccccc21 (stereo not shown) [Dye 23]	545	636	91	+++	+++	+++ (rates of change of the absorbance and the fluorescence intensity are less than 5%, and thus, the storage stability is highly excellent)	–	–	nose	–	–	+++	+++
CC1(C)C(/C=C/C=C/C=C/C=C2\N(CCCCS(=O)(=O)O)c3ccc4ccccc4c3C2(C)C)=[N+](CCCCS(=O)(=O)[O-])c2ccc3ccccc3c21 [ICG, indocyanine green, reference compound]	784	811	27	+	+++	− (rates of change of the absorbance and fluorescence intensity are more than 15%, and thus, the storage stability is poor)	–	–	liver	–	–	–	–

Now from value to molecule, other results behind:

Excitation wavelength λex [2] [nm]	Fluorescence emission wavelength λem [2] [nm]	Stokes shift (λem − λex) [2]	Compound	Fluorescence sensitivity (Zebrafish juveniles)	Staining property (Zebrafish juveniles)	Storage stability [1]	Fluorescence sensitivity (Zebrafish liver section)	Staining property (Zebrafish liver section)	Site(s) to be labelled (Zebrafish juveniles)	Fluorescence sensitivity [3]	Staining property [3]	Fluorescence sensitivity [4]	Staining property [4]
570	699	129	CCN1C(=O)/C(=c2\s/c(=C/c3ccc4c(c3)C3CCCC3N4c3ccc(SC)cc3)c(=O)n2CC(=O)O)SC1=S (stereo not shown) [Dye 18]	+++	+++	+++ (rates of change of the absorbance and the fluorescence intensity are less than 5%, and thus, the storage stability is highly excellent)	–	–	blood vessel, gallbladder, and gastrointestinal	+++	+++	–	–
530	680	150	COc1ccc(N2c3ccc(/C=C4\Oc5ccc(I)cc5C4=O)cc3C3CCCC32)cc1 (stereo not shown) [Dye 142]	+++	+++	+++ (rates of change of the absorbance and the fluorescence intensity are less than 5%, and thus, the storage stability is highly excellent)	–	–	gastrointestinal tract	–	–	–	–
